From patent US5250673A, “2'-deoxy-5-substituted uridine derivatives” (priority 1983, dated 1993)
Where two headings read alike, the source gives them in different places.

How the values were obtained:
[1] = toxicity value: 50% inhibition of weight increase of test animal (Sarcoma 180 tumor-transplanted mice); format: in vivo, mouse; settings: oral, once a day, 7 days, male ICR/JCL mice; for TD50 at 240 h: mouse, sarcoma 180 bearing mice, read-out: Toxicity value (B) Administration amount of test compound at which weight increase of test animal is inhibited by 50% compared with that of control group
Procedure: (b) Method for determining toxicity value
Hitherto, toxicity values of anti-malignant tumor agents have been calculated on the bases of LD50 of test animals, in most cases. […] Therefore, in the present test, accumulated toxicity, which well represents the toxicity of anti-malignant tumor agents, was focused on and, as an indication for sensitive detection of the accumulated toxicity, inhibition of weight increase of test animal was measured. That is, when antitumor activity value was determined in the above item (a), the weight of each mouse of each test groups for each test compounds was measured daily from the day of tumor transplanting, immediately before administration.
On the day of tumor weight measurement, the average net weight increase of each mouse of each test groups for each test compounds from the day of tumor transplanting was measured. These increases were compared with the average net weight increase of control group and the ratio of net weight increase of each test groups of each test compounds to that of control group was calculated. From these calculations, there was obtained an addition amount of each test compound at which weight increase is inhibited by 50% compared with that of control group, and that amount was taken as a toxicity value of each compound.

[2] = test system: Sarcoma 180; assay: antitumor activity: 50% inhibition of tumor enhancement, Sarcoma 180 transplanted in mice; format: in vivo, mouse; settings: oral, once a day, 7 days, male ICR/JCL mice, tumor weight day 10
Procedure: (a) Method for determining of antitumor activity value
5×10^6 Cells of mouse-transplantable tumor Sarcoma 180 were transplanted to each male ICR/JCL-strain mouse (having a weight of 27 to 30 g) subcutaneously at the back. Each test compound dissolved or suspended in 0.1% Tween 80^(*) - 0.5% CMC solution was orally administered to various test groups each consisting of 7 mice once a day for 7 consecutive days from the next day of tumor transplanting, in an amount of 1.0 ml of solution or suspension per 100 g weight per day. As to a control group, the same Tween 80-CMC solution containing no test compound was orally administered once a day for 7 consecutive days in an amount of 1.0 ml per 100 g weight per day. (*) (A trademark for a series of surface which is a polyoxyethylene derivative of fatty acid partial ester of sorbitol anhydride, manufactured by I.C.I. U.S., Inc.)
On the tenth day from the tumor transplanting, an average tumor weight for each administration level of each test compound was determined. This weight was compared with an average tumor weight in control group, and the ratio of tumor enhancement inhibition at each administration level of each test compound compared with control group was calculated. From these calculations, the administration level of each test compound at which the ratio of tumor enhancement inhibition become 50% was obtained and the level (amount) was taken as the antitumor activity value of each compound.

[3] = test system: Sarcoma 180; assay: calculation of therapeutic index (B)/(A), Sarcoma 180 mice; format: in vivo, mouse; set-up: key: C = toxicity value (B) / antitumor activity value (A); settings: oral, once a day, 7 days
Procedure: (c) Calculation of therapeutic index
By the use of the antitumor activity value (hereinafter referred to as A) and the toxicity value (hereinafter referred to as B) of each compound, which were obtained in the above items (a) and (b), respectively, therapeutic index (hereinafter referred to as C) was calculated in accordance with the following equation.
Therapeutic index (C)=^(B)(A)

[4] = reported in literature; cited from earlier work
[5] = compared with 5-FU; cited from earlier work
[6] = administration limited to intraarterial injection; cited from earlier work
[7] = in vivo; cited from earlier work
[8] = test system: nucleosidephosphorylase; settings: administered in vivo; cited from earlier work
[9] = compared with 5-FU; cited from earlier work; remark: listed apart in the source
[10] = relative to 5-FU; cited from earlier work

SMILES | TD50 at 240 h ([1]; Table 1-b) | Antitumor activity value (A) Administration amount of test compound at which tumor enhancement is inhibited by 50% compared with that of control group ([2]; Table 1-b) | Antitumor activity value (A) Administration amount of test compound at which tumor enhancement is inhibited by 50% compared with that of control group ([2]; Table 1-a) | TD50 at 240 h ([1]; Table 1-a) | Therapeutic index (C) = (B)/(A) ([3]; Table 1-a) | other results
CCOC[C@H]1O[C@@H](n2cc(C(F)(F)F)c(=O)n(C(=O)c3ccccc3)c2=O)C[C@@H]1O [Compound 24, 3-benzoyl-2'-deoxy-5'-O-ethyl-5-trifluoromethyluridine] | 36 mg/kg | 26 mg/kg/day |  |  |  | Therapeutic index (C) = (B)/(A) ([3]; Table 1-b): 1.38
O=c1[nH]c(=O)n([C@H]2C[C@H](O)[C@@H](CO)O2)cc1C(F)(F)F [F3 TdR, 2'-Deoxy-5-trifluoromethyl uridine, reference compound] | 40 mg/kg | 58 mg/kg/day | 68 mg/kg/day |  |  | antitumor activity [4]: has an antitumor activity; Toxicity value (B) Administration amount of test compound at which weight increase of test animal is inhibited by 50% compared with that of control group ([1]; Table 1-a, 14400 min): 49 mg/kg/day
Cc1cccc(COC[C@H]2O[C@@H](n3cc(C(F)(F)F)c(=O)[nH]c3=O)C[C@@H]2O)c1 [Compound 15, 2'-deoxy-5'-O-(3-methylbenzyl)-5-trifluoromethyluridine] |  |  | 24 mg/kg/day | 41 mg/kg | 1.71 | 
Cc1ccccc1COC[C@H]1O[C@@H](n2cc(C(F)(F)F)c(=O)[nH]c2=O)C[C@@H]1O [Compound 13, 2'-deoxy-5'-O-(2-methylbenzyl)-5-trifluoromethyluridine] |  |  | 48 mg/kg/day | 65 mg/kg | 1.35 | 
O=c1[nH]c(=O)n([C@H]2C[C@H](OCc3ccc(Cl)cc3)[C@@H](CO)O2)cc1C(F)(F)F [Compound 12] |  |  | 12 mg/kg/day | 17 mg/kg | 1.42 | 
O=c1[nH]c(=O)n([C@H]2C[C@H](O)[C@@H](COCc3ccccc3)O2)cc1F [Compound 41] |  |  |  |  |  | TD50 at 240 h ([1]; Table 1-c): 30 mg/kg; Antitumor activity value (A) Administration amount of test compound at which tumor enhancement is inhibited by 50% compared with that of control group ([2]; Table 1-c): 13 mg/kg/day; Therapeutic index (C) = (B)/(A) ([3]; Table 1-c): 2.31
O=c1[nH]c(=O)n([C@H]2C[C@H](O)[C@@H](COCc3ccc(Cl)cc3)O2)cc1C(F)(F)F [Compound 11] |  |  | 18 mg/kg/day | 22 mg/kg | 1.22 | 
CCOC[C@H]1O[C@@H](n2cc(F)c(=O)[nH]c2=O)C[C@@H]1O [Compound 39] |  |  |  |  |  | TD50 at 240 h ([1]; Table 1-c): 67 mg/kg; Antitumor activity value (A) Administration amount of test compound at which tumor enhancement is inhibited by 50% compared with that of control group ([2]; Table 1-c): 28 mg/kg/day; Therapeutic index (C) = (B)/(A) ([3]; Table 1-c): 2.39
O=C(c1ccccc1)n1c(=O)c(C(F)(F)F)cn([C@H]2C[C@H](OCc3ccccc3)[C@@H](CO)O2)c1=O [Compound 28, 3-benzoyl-3'-O-benzyl-2'-deoxy-5-trifluoromethyluridine] | 35 mg/kg | 25 mg/kg/day |  |  |  | Therapeutic index (C) = (B)/(A) ([3]; Table 1-b): 1.40
O=c1c(C(F)(F)F)cn([C@H]2C[C@H](O)[C@@H](COCc3ccccc3)O2)c(=O)n1C1CCCO1 (stereo partly drawn) [Compound 21, 3-(2-tetrahydrofuranyl)-2'-deoxy-5'-O-benzyl-5-trifluoromethyluridine] |  |  | 22 mg/kg/day | 30 mg/kg | 1.36 | 
O=c1[nH]c(=O)n([C@H]2C[C@H](O)[C@@H](CO)O2)cc1F [FudR, 2'-deoxy-5-fluorouridine] |  |  |  |  |  | carcinostatic effect [5]: inferior to 5-FU in carcinostatic effect; TD50 at 240 h ([1]; Table 1-c): 71 mg/kg; toxicity as a medicine [6]: very toxic; excretion [7]: excreted very quickly; prolonged action in blood [7]: poor prolonged action in blood; Antitumor activity value (A) Administration amount of test compound at which tumor enhancement is inhibited by 50% compared with that of control group ([2]; Table 1-c): 93 mg/kg/day; decomposition into 5-FU by nucleosidephosphorylase [8]: easily decomposed into 5-FU by nucleosidephosphorylase; conversion in vivo into active form [9]: more easily than 5-FU; Therapeutic index (C) = (B)/(A) ([3]; Table 1-c): 0.76; carcinostatic activity in vitro [10]: about 100 times that of 5-fluorouracil
COc1ccc(CO[C@H]2C[C@H](n3cc(C(F)(F)F)c(=O)[nH]c3=O)O[C@@H]2CO)cc1 [Compound 18, 2'-deoxy-3'-O-(4-methoxybenzyl)-5-trifluoromethyluridine] |  |  | 52 mg/kg/day | 60 mg/kg | 1.15 | 
O=c1[nH]c(=O)n([C@H]2C[C@H](O)[C@@H](COCc3ccccc3)O2)cc1C(F)(F)F [Compound 32, 2'-deoxy-5'-O-benzyl-5-trifluoromethyluridine] | 34 mg/kg | 19 mg/kg/day |  |  |  | Therapeutic index (C) = (B)/(A) ([3]; Table 1-b): 1.79
